ChEMBL document CHEMBL1126478, “The syntheses and binding affinities of tools for the study of angiotensin AT2 receptors” (Bioorg Med Chem Lett, 1993)
Active and inactive are the calls of the source.

What was measured:
[1] = target: T1, Type-2 angiotensin II receptor (Homo sapiens, UniProt P50052); assay: The compound was evaluated for the inhibition of binding of [125I]-CGP 42112A to AT2 receptor
T1 sequence (P50052 whole entry): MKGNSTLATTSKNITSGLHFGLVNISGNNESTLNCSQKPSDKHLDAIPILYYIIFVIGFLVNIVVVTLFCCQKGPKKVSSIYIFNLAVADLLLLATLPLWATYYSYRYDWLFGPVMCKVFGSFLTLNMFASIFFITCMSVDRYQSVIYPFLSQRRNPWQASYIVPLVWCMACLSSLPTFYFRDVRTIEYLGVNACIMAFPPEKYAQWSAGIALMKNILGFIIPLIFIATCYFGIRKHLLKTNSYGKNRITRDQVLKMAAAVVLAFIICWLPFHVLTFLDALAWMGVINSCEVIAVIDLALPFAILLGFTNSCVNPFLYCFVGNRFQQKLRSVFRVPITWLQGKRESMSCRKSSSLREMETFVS

[2] = target: T2, Type-1 angiotensin II receptor (Homo sapiens) (UniProt P30556); assay: The compound was evaluated for the inhibition of binding of [3H]-DUP 753 to AT1 receptor at 0.1 uM; not active (</= 10% Inhibition)
T2 sequence (whole entry): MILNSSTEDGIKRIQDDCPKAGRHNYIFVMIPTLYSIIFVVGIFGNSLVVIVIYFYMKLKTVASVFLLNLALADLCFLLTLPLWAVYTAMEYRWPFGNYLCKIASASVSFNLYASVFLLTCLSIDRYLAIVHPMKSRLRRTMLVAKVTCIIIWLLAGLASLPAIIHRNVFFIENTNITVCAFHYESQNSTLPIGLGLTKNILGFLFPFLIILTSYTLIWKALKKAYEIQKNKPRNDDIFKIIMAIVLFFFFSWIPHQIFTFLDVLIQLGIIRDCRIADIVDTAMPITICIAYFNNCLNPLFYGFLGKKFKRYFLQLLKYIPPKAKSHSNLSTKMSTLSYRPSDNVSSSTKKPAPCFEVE

[3] = target: T2, Type-1 angiotensin II receptor (Homo sapiens); assay: The compound was evaluated for the inhibition of binding of [3H]-DUP 753 to AT1 receptor at 1 uM; not active (</= 10% Inhibition)

IC50 [1] [nM] | inhibition [2] | inhibition [3] | Structure (SMILES)
7 | inactive | – | Cc1cc(Cn2cnc3c2C[C@@H](C(=O)O)N(C(=O)C(c2ccccc2)c2ccccc2)C3)ccc1NCCCCCCNC(=O)[C@@H](N)CCCCNC(=O)CCCC[C@@H]1SC[C@@H]2NC(=O)N[C@@H]21
5.1 | inactive | – | Cc1cc(Cn2cnc3c2C[C@@H](C(=O)O)N(C(=O)C(c2ccccc2)c2ccccc2)C3)cc(I)c1O
3.6 | – | inactive | Cc1cc(Cn2cnc3c2C[C@@H](C(=O)O)N(C(=O)C(c2ccccc2)c2ccccc2)C3)ccc1NCCCCCCNC(=O)CCNc1ccc([N+](=O)[O-])c2nonc12
– | inactive | – | Cc1cc(Cn2cnc3c2C[C@@H](C(=O)O)N(C(=O)C(c2ccccc2)c2ccccc2)C3)ccc1N(C)C
